Where a name gives a salt, the structure may show the parent alone. Read-outs that look alike come from different tables or passages of the source.

One test concerns the target Wee1 (h) (Homo sapiens, UniProt P30291). In words: Wee1 kinase (h) detection method, [γ-33P]-ATP filter assay. The test is classed as biochemical. As for the experimental part: Determination of the inhibitory effect of 6-(2-chlorophenyl)-2-((4-(4-methylpiperazin-1-yl)phenyl)amino)-8,9-dihydroimidazo[1,2-a]pyrimido[5,4-e]pyrimidin-5(6H)-one and Analogs on the Enzyme Activity of Wee1 Kinase by Using the Wee1 Kinase (h) Detection Method
Then the stock solution of all compounds under test with 50× concentration in 100% DMSO was added to make the final concentration of 10/1/0.1/0.01 μM, and then mixed the mixture well. The reaction is initiated by the addition of the Mg/ATP mix. After incubation for 40 minutes at room temperature, the reaction is stopped by the addition of phosphoric acid to a concentration of 0.5%. […] Each compound sample is duplicated in duplicate. The negative control was lack of all the components of Wee1 enzyme, and the positive was addition of 30% phosphoric acid to terminate the reaction. The Wee1 inhibitor AZD1775 was detected at 10 μM at the same experiment condition.

Another test deals with LoVo cells. In words: MTT based cell viability assay on LoVo cells. As to conditions: Homo sapiens, LoVo, 72 h, 3 d, read-out: IC50, growth inhibition of LoVo cells. As for the experimental part: Determination of the cell growth inhibiting activity of 6-(2-chlorophenyl)-2-((4-(4-methylpiperazin-1-yl)phenyl)amino)-8,9-dihydroimidazo[1,2-a]pyrimido[5,4-e]pyrimidin-5(6H)-one and analogs on LoVo cells using a MTT based cell viability assay
(§1) The thawed LoVo cells were cultured and passaged to the third generation, and the growth state was good and the confluence was about 90%, which began to be used in the experiment. The LoVo cells were digested with trypsin, centrifuged at 800 rpm for 5 min, the supernatant was discarded, resuspended with fresh culture medium, and counted. 6000 Cells are seeded to each well of a 96-well plate. The cells are incubated at 37° C. in a 5% CO2 cell culture incubator overnight. The tested sample (including the tested compound and the reference compound AZD1775) was diluted continuously to 8 concentrations (the last concentration was negative control of DMSO) with a 1:3 and 1:10 dilution in DMSO respectively: 10 μM, 3.3 μM, 1 μM, 0.33 μM, 0.1 μM, 0.033 μM, 0.01 μM, 0 μM (the final concentration of DMSO was 1%). 5 μL of each concentration was added to 120 μL of culture medium (25 times diluted), and the mixture was shaken well. The overnight cells were taken and the culture medium was removed, 195 μL of fresh culture medium was added to each well, and 5 μL of diluted culture medium containing the corresponding concentration of the tested sample was added respectively, and the culture plate was then placed in the 5% CO2 cell culture incubator at 37° C. for 3 d. After removing the original solution and adding 100 μL of fresh serum-free DMEM culture medium containing MTT (0.5 mg/mL) per well, the culture was continued. The original solution was removed after 4 hrs and 100 μl DMSO was added to each well. The 96-well cell culture plates were shaken away from light for 10 min and readed in a multifunctional reader at 552/630/690 nm to give absorption values (OD values). The data were analyzed using a commercial graphic software (Graph Pad Prism 5.0) and the inhibitory activity of the compound on cell proliferation was plotted in terms of cell survival and compound concentration. The IC50 values were fitted by the S-shaped dose-response curve equation as follows: Y=100/(1+10^(Log C-Log IC50)), where C was the concentration of testing compounds.

In the next test the test system is NCI-H1299 cells. Kind of test: MTT based cell viability assay on NCI-H1299 cells. As to conditions: Homo sapiens, read-out: IC50, growth inhibition of NCI-H1299 cells. As for the experimental part: Determination of the cell growth inhibiting activity of 6-(2-chlorophenyl)-2-((4-(4-methylpiperazin-1-yl)phenyl)amino)-8,9-dihydroimidazo[1,2-a]pyrimido[5,4-e]pyrimidin-5(6H)-one and analogs on NCI-H1299 cells using a MTT based cell viability assay
as §1, with “NCI-H1299” for “LoVo”, “group,” for “medium,”, “1000” for “6000”, “1‰).” for “1%).”, “C−Log” for “C-Log”

Wee1 (h), sequence (P30291 whole entry): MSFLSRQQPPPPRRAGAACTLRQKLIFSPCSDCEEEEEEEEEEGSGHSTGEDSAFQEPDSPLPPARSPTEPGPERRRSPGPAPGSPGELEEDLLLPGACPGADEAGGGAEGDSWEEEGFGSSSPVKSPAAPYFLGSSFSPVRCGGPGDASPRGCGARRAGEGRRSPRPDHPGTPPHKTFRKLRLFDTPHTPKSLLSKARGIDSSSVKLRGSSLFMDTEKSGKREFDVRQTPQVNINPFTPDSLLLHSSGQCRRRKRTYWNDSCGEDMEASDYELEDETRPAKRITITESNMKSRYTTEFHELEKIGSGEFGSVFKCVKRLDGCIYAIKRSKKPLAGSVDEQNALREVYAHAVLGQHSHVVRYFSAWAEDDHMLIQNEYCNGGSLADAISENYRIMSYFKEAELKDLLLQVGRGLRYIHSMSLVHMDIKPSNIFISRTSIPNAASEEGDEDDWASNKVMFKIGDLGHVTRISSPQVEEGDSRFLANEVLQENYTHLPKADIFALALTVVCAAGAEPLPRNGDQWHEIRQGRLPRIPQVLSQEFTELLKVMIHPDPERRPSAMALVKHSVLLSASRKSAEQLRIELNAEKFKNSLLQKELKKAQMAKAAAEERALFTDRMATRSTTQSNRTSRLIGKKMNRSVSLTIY

As to `CN1CCN(c2ccc(Nc3cc4c(cn3)C(=O)N(c3ccccc3Cl)C3=NCCN34)cc2)CC1` [Example 3, 4-(2-Chlorophenyl)-8-((4-(4-methylpiperazin-1-yl)phenyl)amino)-2,4-dihydroimidazo[1,2-a]pyrido[3,4-e]pyrimidin-5(1H)-one], the “Inh. (%) of Wee1 kinase enzyme activity” value at Wee1 (h) (C 10 μm compound) was 56%. Moreover, the IC50 in the test on LoVo cells was above 100000 nM; with NCI-H1299 cells (NCI-H1299 cells) it was above 10000 nM.
On to `CN1CCN(c2ccc(Nc3ncc4c(n3)N3CCN=C3N(c3c(Cl)cccc3Cl)C4=O)cc2)CC1` [Example 4, 6-(2,6-Dichlorophenyl)-2-((4-(4-methylpiperazin-1-yl)phenyl)amino)-8,9-dihydroimidazo[1,2-a]pyrimido[5,4-e]pyrimidin-5(6H)-one], for which the “Inh. (%) of Wee1 kinase enzyme activity” value on Wee1 (h) (C 0.01 μm compound) was 55%; at Wee1 (h) (C 0.1 μm compound), 93%; on Wee1 (h) (C 1 μm compound) it was 97%. At Wee1 (h) (at 0.01 μM, read-out: inhibitory rate on Wee1 enzyme activity), the inhibition at 0.01 µM was 51%. Besides, the IC50 in the test on LoVo cells turned out to be 169 nM; with NCI-H1299 cells (NCI-H1299, NCI-H1299 cells) it was 204 nM.
For `Cc1cccc(Cl)c1N1C(=O)c2cnc(Nc3ccc(N4CCN(C)CC4)cc3)nc2N2CCN=C21` [Example 5, 6-(2-Chloro-6-methylphenyl)-2-((4-(4-methylpiperazin-1-yl)phenyl)amino)-8,9-dihydroimidazo[1,2-a]pyrimido[5,4-e]pyrimidin-5(6H)-one], the “Inh. (%) of Wee1 kinase enzyme activity” value at Wee1 (h) (C 1 μm compound) worked out at 88%. Also, the IC50 with LoVo cells was determined as 431 nM; in the test with NCI-H1299 cells (NCI-H1299 cells), 941 nM.
In the case of `CC(C)N1CCN(c2ccc(Nc3ncc4c(n3)N3CCN=C3N(c3c(F)cccc3Cl)C4=O)cc2)CC1` [Example 6, 6-(2-Chloro-6-fluorophenyl)-2-((4-(4-isopropylpiperazin-1-yl)phenyl)amino)-8,9-dihydroimidazo[1,2-a]pyrimido[5,4-e]pyrimidin-5(6H)-one], the “Inh. (%) of Wee1 kinase enzyme activity” value at Wee1 (h) (C 0.01 μm compound) came out at 33%; at Wee1 (h) (C 0.1 μm compound), 89%; on Wee1 (h) (C 1 μm compound) it was 98%. Also, the IC50 came out at 339 nM in the test on LoVo cells and 461 nM in the test with NCI-H1299 cells (NCI-H1299 cells).
For `CC(=O)N1CCN(c2ccc(Nc3ncc4c(n3)N3CCN=C3N(c3c(F)cccc3Cl)C4=O)cc2)CC1` [Example 7, 2-((4-(4-Acetylpiperazin-1-yl)phenyl)amino)-6-(2-chloro-6-fluorophenyl)-8,9-dihydroimidazo[1,2-a]pyrimido[5,4-e]pyrimidin-5(6H)-one] the same measures were 31%, 84%, 96%, 1430 nM and 1260 nM.
The matching figures for `CN1CCc2ccc(Nc3ncc4c(n3)N3CCN=C3N(c3c(F)cccc3Cl)C4=O)cc2C1` [Example 8, 6-(2-Chloro-6-fluorophenyl)-2-((2-methyl-1,2,3,4-tetrahydroisoquinolin-7-yl)amino)-8,9-dihydroimidazo[1,2-a]pyrimido[5,4-e]pyrimidin-5(6H)-one]: 60%, 93%, 99%, 202 nM and 159 nM.
For `CN1Cc2cc(Nc3ncc4c(n3)N3CCN=C3N(c3c(F)cccc3Cl)C4=O)ccc2C(C)(C)C1` [Example 9, 6-(2-Chloro-6-fluorophenyl)-2-((2,4,4-trimethyl-1,2,3,4-tetrahydroisoquinolin-7-yl)amino)-8,9-dihydroimidazo[1,2-a]pyrimido[5,4-e]pyrimidin-5(6H)-one] the same measures were 28%, 79%, 100%, 126 nM and 183 nM.
Take `Cc1cc(Nc2ncc3c(n2)N2CCN=C2N(c2c(Cl)cccc2Cl)C3=O)ccc1N1CCC(N(C)C)CC1` [Example 141, 6-(2,6-Dichlorophenyl)-2-((4-(4-(dimethylamino)piperidin-1-yl)-3-methylphenyl)amino)-8,9-dihydroimidazo[1,2-a]pyrimido[5,4-e]pyrimidin-5(6H)-one]: the figures for the IC50 with LoVo cells and in the test with NCI-H1299 cells (NCI-H1299 cells) were 37.3 nM and 42.9 nM, respectively.
For `COc1cc(Nc2ncc3c(n2)N2CCN=C2N(c2c(Cl)cccc2Cl)C3=O)cc(C)c1N1CCN(C)CC1` [Example 159, 6-(2,6-Dichlorophenyl)-2-((3-methoxy-5-methyl-4-(4-methylpiperazin-1-yl)phenyl)amino)-8,9-dihydroimidazo[1,2-a]pyrimido[5,4-e]pyrimidin-5(6H)-one] the same measures were 52.2 nM and 56.8 nM.
For `Cc1cc(Nc2ncc3c(n2)N2CCN=C2N(c2c(C)cccc2Cl)C3=O)cc(F)c1N1CCC(N(C)C)CC1` [Example 170, 6-(2-Chloro-6-methylphenyl)-2-((4-(4-(dimethylamino)piperidin-1-yl)-3-fluoro-5-methylphenyl)amino)-8,9-dihydroimidazo[1,2-a]pyrimido[5,4-e]pyrimidin-5(6H)-one] the same measures were 76.9 nM and 89.9 nM.
The matching figures for `Cc1cc(Nc2ncc3c(n2)N2CCN=C2N(c2c(Cl)cccc2Cl)C3=O)ccc1N1CCNCC1` [Example 177, 6-(2,6-Dichlorophenyl)-2-((3-methyl-4-(piperazin-1-yl)phenyl)amino)-8,9-dihydroimidazo[1,2-a]pyrimido[5,4-e]pyrimidin-5(6H)-one]: 59.5 nM and 83.1 nM.
Consider `CNCc1cc(Nc2ncc3c(n2)N2CCN=C2N(c2c(Cl)cccc2Cl)C3=O)ccc1N1CCOCC1` [Example 184, 6-(2,6-Dichlorophenyl)-2-((3-((methylamino)methyl)-4-morpholinophenyl)amino)-8,9-dihydroimidazo[1,2-a]pyrimido[5,4-e]pyrimidin-5(6H)-one], for which the IC50 was found to be 1490 nM in the test with LoVo cells and 879 nM with NCI-H1299 cells (NCI-H1299 cells).
For `CN1CCN(c2ccc(Nc3ncc4c(n3)N3CCN=C3N(c3c(Cl)cccc3Cl)C4=O)cc2Cl)CC1` [Example 186, 6-(2,6-Dichlorophenyl)-2-((3-chloro-4-(4-methylpiperazin-1-yl)phenyl)amino)-8,9-dihydroimidazo[1,2-a]pyrimido[5,4-e]pyrimidin-5(6H)-one dihydrochloride], the 50% inhibitory concentration (IC50) in the test with LoVo cells was found to be 42.4 nM; with NCI-H1299 cells (NCI-H1299 cells) it was 154 nM.

Usually IC50 stands for the concentration that inhibits the measured activity by half.

Values taken from patent publication US11345711B2, “8,9-dihydroimidazo[1,2-a]pyrimido[5,4-e]pyrimidin-5(6H)-ones” (IMPACT THERAPEUTICS (SHANGHAI), INC, priority 2016, dated 2022).
